The values below are quoted from earlier work in patent publication US20120178757A1, “Method For The Prevention Of Cancer Metastasis” (NOTTINGHAM UNIVERSITY HOSPITALS NHS TRUST, priority 2010, published 2012).

For one data set, the system named is breast cancer cells. The following applies: in vitro breast cancer cells.
Another data set has as its system prostate cancer. Particulars: coincidental treatment for hypertension or benign prostate hyperplasia.
In data set [1] the test system is carcinoma cell lines of colon, prostate, ovary and breast. Particulars: adrenoceptor-mediated, norepinephrine-induced migration of cancer cells.
Data set [2] relates to human pancreatic cell lines.

Structures are written as SMILES. Entries after “also recorded” stand apart in the source; their conditions may differ.

As for `COc1cc2nc(N3CCN(C(=O)C4COc5ccccc5O4)CC3)nc(N)c2cc1OC` (stereo not drawn) [doxazosin, Doxazosin], in the data set on breast cancer cells, the apoptosis result is recorded as “induce apoptosis” and the proliferation entry is reported as “inhibit proliferation”. In addition, the “incidence of prostate cancer” value in the data set on prostate cancer is on record as “significantly lowered the incidence of prostate cancer”.
As for `CC(C)NCC(O)COc1cccc2ccccc12` (stereo not drawn) [propranolol, Propranolol], the cell migration entry in data set [1] is “can be inhibited; also recorded: is inhibited”. Besides, the proliferation entry in data set [2] is “can reduce proliferation”.
With `COc1cc2nc(N3CCN(C(=O)C4CCCO4)CC3)nc(N)c2cc1OC` (stereo not drawn) [terazosin, Terazosin], in the data set on prostate cancer, the “incidence of prostate cancer” value is reported as “significantly lowered the incidence of prostate cancer”.
